Drawing on patent US6552058B1, “Oxazolidinedione derivatives and their use” (Takeda Chemical Industries, Ltd., priority 1993, dated 2003), this text covers inhibition in vivo and melting point for 16 molecules.

As usually defined, the melting point is the temperature, or range, at which the solid turns liquid.

Like-named read-outs stand apart in the source and are kept apart here.

Data set [1] deals with KKA^y mice. Description: Hypoglycemic and hypolipidemic actions in mice (plasma glucose and triglyceride). Particulars: Mus musculus, po, 96 h, reduction from control group, 0.005% in powdery feed for 4 days. It counts as in vivo. From the text:
Hypoglycemic and Hypolipidemic Actions in Mice
A test compound mixed in a powdery feed (CE-2, Japan Clea) at a rate of 0.005% was fed to KKA^y mice (9-14 week old) freely for 4 days. During the period, the animals had free access to water. Blood was collected from the orbital venous plexus. Using the plasma, glucose and triglyceride were enzymatically determined quantitatively by using Iatrochem-GLU(A) and Iatro-MA701 TG kit (latron Inc.). The respective values are percents reduction (%) found in drug-dosed groups from the control group not receiving the test compound, which are shown in [Table 1].

The mark [2] stands for this setting: plasma glucose, read-out: Hypoglycemic Action % reduction.
The mark [3] stands for this setting: plasma triglyceride, read-out: Hypolipidemic Action % reduction.

For `Cc1oc(-c2ccccc2)nc1C(=O)COc1ccc(CCCC2OC(=O)NC2=O)cc1` (stereo not drawn) [Example 35, 5-[3-[4-[2-(5-methyl-2-phenyl-4-oxazolyl)-2-oxoethoxy]phenyl]propyl]-2,4-oxazolidinedione], the inhibition in vivo at 0.005 % in diet is 42% in data set [1] (setting [2]) and 32% in data set [1] (setting [3]).

Take `Cc1oc(-c2ccccc2)nc1COc1ccc(CCCC2OC(=O)NC2=O)cn1` (stereo not drawn) [Example 52, 5-[3-[2-(5-methyl-2-phenyl-4-oxazolylmethoxy)-5-pyridyl]propyl]-2,4-oxazolidinedione]: the inhibition in vivo at 0.005 % in diet is 54% in data set [1] (setting [2]) and 82% in data set [1] (setting [3]).

Molecule `Cc1cccc(-c2nc(CCOc3ccc(CCCC4OC(=O)NC4=O)cc3)c(C)o2)c1` (stereo not drawn) [Example 16, 5-[3-[4-[2-[5-methyl-2-(3-methylphenyl)-4-oxazolyl]ethoxy]phenyl]propyl]-2,4-oxazolidinedione] yielded a melting point of 149 to 150 °C.

As for `Cc1oc(-c2ccccc2)nc1COc1ccc(C(C)CCC2OC(=O)NC2=O)cc1` (stereo not drawn) [Example 60, 5-[3-[4-(5-methyl-2-phenyl-4-oxazolylmethoxy)phenyl]butyl]-2,4-oxazolidinedione], the inhibition in vivo at 0.005 % in diet in data set [1] (setting [2]) was determined as 54%; in data set [1] (setting [3]), 77%.

`Cc1oc(-c2ccccc2)nc1COc1ccc(CCCCCC2OC(=O)NC2=O)cc1` (stereo not drawn) [Example 33, 5-[5-[4-(5-methyl-2-phenyl-4-oxazolylmethoxy)phenyl]pentyl]-2,4-oxazolidinedione] gave a melting point of 120 to 121 °C. In addition, the inhibition in vivo at 0.005 % in diet in data set [1] (setting [2]) is 45%. In addition, the inhibition in vivo at 0.005 % in diet in data set [1] (setting [3]) was determined as 59%.

In the case of `Cc1oc(-c2ccccc2)nc1Cc1cc2cc(C=CC=C3OC(=O)NC3=O)ccc2o1` [Example 14, 5-[3-[2-(5-methyl-2-phenyl-4-oxazolylmethyl)benzofuran-5-yl]-2-propenylidene]-2,4-oxazolidinedione], the melting point was in the range of 237 to 239 °C.

Molecule `Cc1oc(-c2ccccc2)nc1CCOc1ccc(CCCCCC2OC(=O)NC2=O)cc1` (stereo not drawn) [Example 31, 5-[5-[4-[2-(5-methyl-2-phenyl-4-oxazolyl)ethoxy]phenyl]pentyl]-2,4-oxazolidinedione] registered a melting point of 157 to 158 °C.

With `Cc1oc(-c2ccccc2)nc1CCOc1ccc(CCC2OC(=O)NC2=O)cc1` (stereo not drawn) [Example 24, 5-[2-[4-[2-(5-methyl-2-phenyl-4-oxazolyl)ethoxy]phenyl]ethyl]-2,4-oxazolidinedione], the melting point lay in the range of 193 to 194 °C. Also, the inhibition in vivo at 0.005 % in diet in data set [1] (setting [2]) turned out to be 56%. Moreover, the inhibition in vivo at 0.005 % in diet in data set [1] (setting [3]) stood at 53%.

In turn, `Cc1oc(-c2ccccc2)nc1C(O)COc1ccc(CCCC2OC(=O)NC2=O)cc1` (stereo not drawn) [Example 36, 5-[3-[4-[2-hydroxy-2-(5-methyl-2-phenyl-4-oxazolyl)ethoxy]phenyl]propyl]-2,4-oxazolidinedione] showed a melting point of 146 to 147 °C. For the same molecule, the inhibition in vivo at 0.005 % in diet in data set [1] (setting [2]) was determined as 56%. The inhibition in vivo at 0.005 % in diet in data set [1] (setting [3]) was 48%.

On to `Cc1oc(-c2ccccc2)nc1CCOc1ccc(C=CC=CC=C2OC(=O)NC2=O)cc1` [Example 15, 5-[5-[4-[2-(5-methyl-2-phenyl-4-oxazolyl)ethoxy]phenyl]-2,4-pentadienylidene]-2,4-oxazolidinedione], for which the melting point is 209 to 211 °C.

In turn, `Cc1oc(-c2ccccc2)nc1Cc1cc2cc(CCCC3OC(=O)NC3=O)ccc2o1` (stereo not drawn) [Example 30, 5-[3-[2-(5-methyl-2-phenyl-4-oxazolylmethyl)benzofuran-5-yl]propyl]-2,4-oxazolidinedione] returned a melting point of 184 to 185 °C. For the same molecule, the inhibition in vivo at 0.005 % in diet in data set [1] (setting [2]) amounted to 57%. In addition, in data set [1] (setting [3]), the inhibition in vivo at 0.005 % in diet was 70%.

Take `Cc1oc(-c2ccccc2)nc1COc1ccc(CCC2OC(=O)NC2=O)cc1` (stereo not drawn) [Example 32, 5-[2-[4-(5-methyl-2-phenyl-4-oxazolylmethoxy)phenyl]ethyl]-2,4-oxazolidinedione]: the figures for the inhibition in vivo at 0.005 % in diet in data set [1] (setting [2]) and in data set [1] (setting [3]) were 63% and 60%, respectively.

For `Cc1oc(-c2ccccc2)nc1COc1cccc(CCCC2OC(=O)NC2=O)c1` (stereo not drawn) [Example 56, 5-[3-[3-(5-methyl-2-phenyl-4-oxazolylmethoxy)phenyl]propyl]-2,4-oxazolidinedione], the inhibition in vivo at 0.005 % in diet in data set [1] (setting [2]) worked out at 32%; in data set [1] (setting [3]), 24%.

`Cc1cccc(-c2nc(CCOc3ccc(C=CC=C4OC(=O)NC4=O)cc3)c(C)o2)c1` [Example 1, 5-[4-[2-[5-methyl-2-(3-methylphenyl)-4-oxazolyl]ethoxy]cinnamylidene]-2,4-oxazolidinedione] had a melting point of 213 to 214 °C.

For `Cc1oc(-c2ccccc2)nc1CCOc1ccc(CCCC2OC(=O)NC2=O)cn1` (stereo not drawn) [Example 23, 5-[3-[2-[2-(5-methyl-2-phenyl-4-oxazolyl)ethoxy]-5-pyridyl]propyl]-2,4-oxazolidinedione], the melting point lay within 169 to 171 °C. In data set [1] (setting [2]), the inhibition in vivo at 0.005 % in diet was 39%. Further, in data set [1] (setting [3]), the inhibition in vivo at 0.005 % in diet turned out to be 33%.

In the case of `Cc1oc(-c2ccccc2)nc1COc1ccc(CCCCC2OC(=O)NC2=O)cc1` (stereo not drawn) [Example 34, 5-[4-[4-(5-methyl-2-phenyl-4-oxazolylmethoxy)phenyl]butyl]-2,4-oxazolidinedione], the melting point was in the range of 186 to 187 °C. Moreover, the inhibition in vivo at 0.005 % in diet in data set [1] (setting [2]) worked out at 43%. Besides, the inhibition in vivo at 0.005 % in diet in data set [1] (setting [3]) came out at 51%.
